From PMC7613620, “Reaction hijacking of tyrosine tRNA synthetase as a whole-of-life-cycle antimalarial strategy” (Science (New York, N.Y.), 2022)

Legend:
H1650 = H1650 cell viability (ATP content); type: cell-based; settings: Homo sapiens, NCI-H1650, 72 h, read-out: H1650 IC50(72h)
Procedure: (§1) 574 H1650 is a human lung cancer derived ATG7-null cell line (49) that can be used to assess effects on targets
(§2) 576 adenocarcinoma; bronchoalveolar carcinoma). Other cells lines used are: H460 (NCI-H460; human lung;
(§3) 577 carcinoma; large cell lung cancer; ATCC: HTB-177); and HCT116 (human colon; colorectal carcinoma;
(§4) 578 ATCC: CCL-247; Lot : 5056139). Each of the cell lines was received from the American Type Culture
(§5) 579 Collection (ATCC) and passaged twice before freezing. Cells were cultured in the presence or absence of
(§6) 580 inhibitors and cell viability was assessed by comparing the ATP content in compound-treated wells with
(§7) 581 that in DMSO-treated wells as previously described (11). […]
(§8) 585 37°C humidified incubator as adherent semi-confluent monolayers in complete Dulbecco’s Modified Eagle
(§9) 586 Media (c-DMEM). DMEM (Gibco™, Thermo Fisher Scientific, Australia) was supplemented with 10%

H460 = H460 cell viability (ATP content); type: cell-based; settings: Homo sapiens, NCI-H460, 72 h, read-out: H460 IC50(72h)
Procedure: as §1, §2, §3, §4, §5, §6, §7, §8, §9

[1] = system: eIF2α phosphorylation in P. falciparum; assay: Western blot for phosphorylated-eIF2α; type: cell-based, Plasmodium falciparum; settings: wildtype P. falciparum cultures
Procedure: Synchronous ring-stage YRScyt conditional knockdown line and the aptamer-regulatable control
700 the drug plate. Lowest drug treatment and a lethal dose of chloroquine (200 nM) served as reference
Two guide RNAs (gRNA1: […] and gRNA2:
Ring-stage P. falciparum parasites (Dd2 strain) at 10%
Using a modification of a published procedure (14), the
722 cells were labelled with O-propargyl-puromycin (OPP; 4 µM) for 1 h, washed 3x (PBS +3% serum) and
Flow cytometry was performed
730 hematocrit and 5% parasitemia. The RBC pellet was washed 3 x in PBS + cOmplete. Cells were centrifuged
The wash with PBS + cOmplete and
The pellet was resuspended in Bolt LDS sample
The samples were vortexed for 10 min at room temperature.
Secondary antibodies: goat
740 anti-rabbit IgG-peroxidase (Sigma-Aldrich-A0545; 1:20 000), goat anti-mouse IgG-peroxidase (Chemicon-
Chemiluminescence was detected using the Bio-Rad ChemiDocTM MP imaging
For the human mature YRS construct,
The YRS sequences were codon optimized for E. coli,
The vector was transformed into
PfYRS, PfYRSS234C and HsYRS were induced
Cell pellets were resuspended in 40 mL lysis
Cells were lysed by sonication (Microtip, QSonica)
The supernatant was applied to a 5
757 mL HisTrap HP column (GE Healthcare) and washed with 50 mL binding buffer containing 50 mM Tris-
His-YRS was eluted using a 0-500 mM
The eluted His-YRS was dialyzed overnight at 4°C
760 against 50 mM Tris-HCl, pH 8, 500 mM NaCl, 30 mM imidazole, 1 mM TCEP with the addition of His-
Cleaved His tags from His-YRS and TEV
YRS was further purified by gel filtration using a HiLoad 16/600 Superdex 200 column (GE

HCT116 = HCT116 cell viability (ATP content); type: cell-based; settings: Homo sapiens, HCT-116, 72 h, read-out: HCT116 IC50(72h)
Procedure: as §1, §2, §3, §4, §5, §6, §7, §8, §9

P. falciparum (3D7) = P. falciparum (3D7) culture growth inhibition, 72 h; type: cell-based, Plasmodium falciparum; settings: Plasmodium falciparum, 3D7, 72 h, read-out: Pf3D7 IC50(72h)
Procedure: (1 picture or pasted object on this page, not shown here)
553 Sigma-Aldrich) for 48-72 h. For drug pulse assays, tightly synchronized parasites (1-1.5% parasitemia,
554 0.2% final hematocrit) were added to the plates and incubated for 3 h. Drugs were removed and the
555 parasitemia assessed in the trophozoite stage of the next cycle.
557 Compounds were tested against a range of drug resistant field isolates and laboratory strains using a
558 modified [3H]-hypoxanthine incorporation assay, as previously reported (46). Field isolates 7G8, Cam3.1,
559 Dd2, K1, TM90C2B and NF54 were obtained from MR4 (www.beiresources.org).
561 Mammalian cell culture experiments
562 The HepG2 (Human hepatocyte carcinoma) cell line was procured from ATCC (American Type
563 Culture Collection, Manassas, USA; HB-8065) and viability assessed using Cell Titer-GLO luminescent
564 cell viability assay reagents (Promega, catalogue number: G7570) (47, 48). For the assay, 2000 cells/well
565 were plated in 384-well plates 24 h prior to the experiment and incubated at 37°C in a CO2 incubator. The
566 medium was removed and cells were treated with fresh medium containing either vehicle (0.5% DMSO)
567 or serially diluted test compounds or doxorubicin (1.3 nM to 25 µM) in a final volume of 50 µl/well and
568 further incubated for 72 h at 37°C in a CO2 incubator.
569 were treated with 5 µl of 1% Triton X-100 (final assay conc. 0.1%). Following incubation, 25 µl of medium
570 was discarded and 25 µl of Cell Titer-GLO reagent was added to each well and the plate was kept on a plate
571 shaker for 15 min at 25°C with shaking at 300 rpm. Luminescence signals were measured in a Spectramax
572 M5 reader (Molecular Devices).
as §1, §2, §3, §4, §5, §6
581 that in DMSO-treated wells as previously described (11).
583 HeLa cells (human cervical adenocarcinoma; genome sequenced (Garvin Institute, Australia) and verified

HsYRS = target: T1, HsYRS (Homo sapiens, UniProt P54577); assay: Tyrosine acylation of cognate tRNATyr by HsYRS; type: biochemical; settings: YRS 0.25 μM, ATP 10 μM, 37°C 1 h
T1 construct: made in house; host or cells: E. coli BL21(DE3), pET-11a
T1 sequence (P54577 1-364): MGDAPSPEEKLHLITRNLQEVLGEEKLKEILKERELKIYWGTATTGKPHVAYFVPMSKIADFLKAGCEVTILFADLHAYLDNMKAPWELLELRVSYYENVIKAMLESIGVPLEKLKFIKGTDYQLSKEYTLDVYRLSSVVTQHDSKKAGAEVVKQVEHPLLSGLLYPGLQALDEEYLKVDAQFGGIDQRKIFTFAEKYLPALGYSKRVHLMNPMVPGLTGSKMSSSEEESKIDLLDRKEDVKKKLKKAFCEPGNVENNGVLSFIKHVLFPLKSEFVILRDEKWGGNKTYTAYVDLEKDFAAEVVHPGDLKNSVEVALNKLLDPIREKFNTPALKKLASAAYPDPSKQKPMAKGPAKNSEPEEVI

PfYRS [2] = target: T2, PfYRS (Plasmodium falciparum, UniProt Q8IAR7); assay: Tyrosine acylation of cognate tRNATyr by PfYRS; type: biochemical
PfYRS [3] = target: T2, PfYRS; assay: biochemical; type: binding
Procedure: (§10) 804 An intron was detected in the PftRNATyr sequence, that was not indicated in PlasmoDB. A T7 RNA
(§11) 805 polymerase promoter sequence was added to the 5’ end of the DNA sequence of P. falciparum and H.
(§12) 806 sapiens tRNATyr. This DNA template and its complementary strand were custom-synthesized by Sigma-
(§13) 807 Aldrich. Two oligonucleotides were annealed at 95°C for 5 min and the double-stranded DNA template
(§14) 808 was used for in vitro transcription. The transcription reaction was incubated at 37°C overnight. The reaction
(§15) 809 mixture consists of template DNA, T7 RNA polymerase and NTP mix as per manufacturer's instructions
(§16) 810 (HiScribe™ T7 Quick High Yield RNA Synthesis Kit, NEB). On the following day, the reaction mixture
(§17) 811 was treated with DNase I at 37°C for 15 min. tRNA was purified using RNA clean-up spin columns
(§18) 812 (Monarch® RNA Cleanup Kit, NEB) to remove contaminants from the transcription reaction.
(§19) 814 Differential scanning fluorimetry (DSF)
(§20) 815 PfYRS and HsYRS at 0.1 mg/ml were incubated with various substrates at 37°C for 1-3 h. PfYRS was
(§21) 816 assayed in 25 mM Tris, pH 8, 150 mM NaCl, 5 mM MgCl2 and 1 mM TCEP. HsYRS was assayed in 50
(§22) 817 mM Tris, pH 7.5, 150 mM NaCl, 50 mM KCl, 5 mM MgCl2 and 1 mM TCEP. SYPRO Orange (Sigma-
(§23) 818 Aldrich; 5,000X concentrate in DMSO) was added to the reaction mixture at a final concentration of 2.5X.
(§24) 819 25 µL of the sample was added into each well of a 96-well qPCR plate (Applied Biosystems). The plate
(§25) 820 was sealed and analysed using StepOnePlus Real-Time PCR system (Applied Biosystems). The samples
(§26) 821 were heated from 20°C to 90°C with a 1% continuous gradient. The thermal unfolding curve was plotted
(§27) 822 as the first derivative curve of the raw fluorescence values. The melting temperature (Tm), defined as the
(§28) 823 peak of the first derivative curve, was used to assess the thermal stability of protein-ligand complexes. KD
(§29) 824 values were calculated from DTm using the equation: ln(KD/[L]) = -131.5 x (∆Tm/Tm,apo) - 1.9, where [L]
(§30) 825 is the concentration of ligand and T is the temperature in Kelvin (40). […]

PfYRSS234C = PfYRSS234C (Plasmodium falciparum, UniProt Q8IAR7, S234C); assay: biochemical; type: binding
Procedure: as §10, §11, §12, §13, §14, §15, §16, §17, §18, §19, §20, §21, §22, §23, §24, §25, §26, §27, §28, §29, §30

T2 sequence (Q8IAR7 entry or part of it): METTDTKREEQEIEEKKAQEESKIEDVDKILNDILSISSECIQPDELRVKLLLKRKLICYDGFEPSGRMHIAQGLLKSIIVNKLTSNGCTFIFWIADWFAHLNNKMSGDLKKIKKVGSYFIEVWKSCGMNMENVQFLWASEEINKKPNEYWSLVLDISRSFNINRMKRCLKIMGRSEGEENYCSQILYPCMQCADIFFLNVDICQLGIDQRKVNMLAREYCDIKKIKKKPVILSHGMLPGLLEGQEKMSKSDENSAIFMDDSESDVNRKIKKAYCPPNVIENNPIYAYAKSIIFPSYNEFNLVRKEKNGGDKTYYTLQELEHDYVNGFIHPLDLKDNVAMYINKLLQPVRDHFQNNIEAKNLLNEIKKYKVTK
PfYRSS234C, sequence (Q8IAR7 whole entry S234C): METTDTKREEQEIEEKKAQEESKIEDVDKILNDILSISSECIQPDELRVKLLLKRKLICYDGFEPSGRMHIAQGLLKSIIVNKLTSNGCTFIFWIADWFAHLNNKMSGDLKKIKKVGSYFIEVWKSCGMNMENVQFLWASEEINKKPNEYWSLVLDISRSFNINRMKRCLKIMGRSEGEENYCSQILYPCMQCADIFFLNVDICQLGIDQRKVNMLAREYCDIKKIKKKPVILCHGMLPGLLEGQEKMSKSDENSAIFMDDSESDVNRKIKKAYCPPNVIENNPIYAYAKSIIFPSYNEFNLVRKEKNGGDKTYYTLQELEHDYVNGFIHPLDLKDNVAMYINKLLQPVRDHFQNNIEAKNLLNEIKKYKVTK

SMILES	IC50 (H1650)	IC50 (H460)	eIF2α phosphorylation [1]	IC50 (HCT116)	IC50 (P. falciparum (3D7))	IC50 (HsYRS)	IC50 (PfYRS [2])	Kd (PfYRS [3])	Tm (PfYRS [3]; PfYRS 2.3 μM, after incubation at 37°C for 3 h)	DTm (PfYRS [3]; PfYRS, versus apo)	Kd (PfYRSS234C)	Tm (PfYRSS234C; PfYRSS234C 2.3 μM, after incubation at 37°C for 3 h)
Nc1ncnc2c1ncn2[C@@H]1O[C@H](COS(N)(=O)=O)[C@@H](O)[C@H]1O [AMS, adenosine 5′-sulfamate, reference compound]	140 nM	25 ± 7 nM	triggers eIF2α phosphorylation	26 nM	1.8 nM							
Nc1ncnc2c1c(OC(F)F)nn2C1OC(COS(=O)(=O)NC(=O)C(N)Cc2ccc(O)cc2)C(O)C1O (stereo not drawn) [ML901-Tyr]						23000 nM	1600 nM	0.7 nM	65.1 ± 0.1 oC	14.9 oC	3.9 nM	59.7 ± 0.3 oC
